Source: patent publication EP4759807A1, “PROTEOLYSIS TARGETING CHIMERA COMPOUND FOR DEGRADING IRAK4 AND USE THEREOF” (Shenzhen Zhongge Biological Technology Co., Ltd., priority 2023, dated 2025)
Read-outs that look alike come from different tables or passages of the source.

Molecular target: T1, IRAK4 (Homo sapiens, UniProt Q9NWZ3)
T1 sequence (Q9NWZ3 1-460): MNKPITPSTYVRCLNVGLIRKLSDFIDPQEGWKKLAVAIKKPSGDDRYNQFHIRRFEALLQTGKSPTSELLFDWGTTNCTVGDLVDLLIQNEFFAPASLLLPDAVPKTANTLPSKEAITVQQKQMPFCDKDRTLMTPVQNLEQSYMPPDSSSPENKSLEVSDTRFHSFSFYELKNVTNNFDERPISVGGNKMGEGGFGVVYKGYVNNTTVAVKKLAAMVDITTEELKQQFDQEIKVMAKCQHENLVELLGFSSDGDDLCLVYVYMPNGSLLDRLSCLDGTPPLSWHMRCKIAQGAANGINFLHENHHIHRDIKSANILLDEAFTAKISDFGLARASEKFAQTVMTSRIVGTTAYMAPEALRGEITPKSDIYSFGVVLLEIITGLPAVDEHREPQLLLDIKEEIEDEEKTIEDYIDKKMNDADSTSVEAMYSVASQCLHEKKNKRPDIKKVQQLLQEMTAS
Experiment: Hibit fluorescence detection of proteolysis (IRAK4-HiBiT in HEK293T cells)
Assay type: cell-based
Set-up: host or cells: HEK293T (ATCC)
Details: for Dmax: HEK-293T
Method in brief: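 Degradation read-out: luminescence from lytic HiBiT detection (15 min, room temperature) after 24 h compound exposure (37 °C, 5% CO2) of HEK293T cells transiently expressing IRAK4 fused to a HiBiT tag. Data fitted to a bell-shaped four-parameter model giving two EC50 values.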

[1] = IRAK4-HiBiT, HEK293T cells, 24 h
[2] = IRAK4-HiBiT, HEK293T cells, 24 h, read-out: Dmax
[3] = IRAK4-HiBiT, HEK293T cells, 24 h, read-out: DC50

Structure (SMILES) | Dmax [%] | DC50 [1] [nM] | Dmax [2] [%] | DC50 [3] [nM]
Cn1c(=O)n(C2CCC(=O)NC2=O)c2cccc(N3CC4CN(C[C@H]5CC[C@H](n6cc(-n7cc(-c8ccc9cc(C(N)=O)cnn89)nn7)c(C(F)F)n6)CC5)CC4C3)c21 (stereo partly drawn) [Example 81] | > 80 | < 0.5 | – | –
Cn1c(=O)n(C2CCC(=O)NC2=O)c2cccc(C3CN(C4CCN(C[C@H]5CC[C@H](n6cc(-n7cc(-c8ccc9cc(C(N)=O)cnn89)nn7)c(C(F)F)n6)CC5)CC4)C3)c21 (stereo partly drawn) [Example 82] | > 80 | < 0.5 | – | –
Cn1c(=O)n(C2CCC(=O)NC2=O)c2cccc(C3CN(C4CN(C[C@H]5CC[C@H](n6cc(-n7cc(-c8ccc9cc(C(N)=O)cnn89)nn7)c(C(F)F)n6)CC5)C4)C3)c21 (stereo partly drawn) [Example 83] | 70 to 80 | < 0.5 | – | –
Cn1c(=O)n(C2CCC(=O)NC2=O)c2cccc(N3CC4CCC(C3)N4C[C@H]3CC[C@H](n4cc(-n5cc(-c6ccc7cc(C(N)=O)cnn67)nn5)c(C(F)F)n4)CC3)c21 (stereo partly drawn) [Example 86, 7-(1-(3-(difluoromethyl)-1-((1R,4R)-4-(3-(1-(2,6-dioxy-3-yl)-3-methyl-2-oxo-2,3-dihydro-1H-benzo[d]imidazol-4-yl)-3,8-diazabicyclo[3.2.1]oct-8-yl)methyl)cyclohexyl-1H-pyrazol-4-yl)-1H-1,2,3-triazol-4-yl)pyrrolo[1,2-b]pyridazine-3-carboxamide] | > 80 | 1 to 5 | – | –
Cn1c(=O)n(C2CCC(=O)NC2=O)c2cccc(C#CC3CN(C[C@H]4CC[C@H](n5cc(-n6cc(-c7ccc8cc(C(N)=O)cnn78)nn6)c(C(F)F)n5)CC4)C3)c21 (stereo partly drawn) [Example 87] | 70 to 80 | 0.5 to 1 | – | –
Cn1c(=O)n(C2CCC(=O)NC2=O)c2cccc(N3CCOC4(CCN(C[C@H]5CC[C@H](n6cc(-n7cc(-c8ccc9cc(C(N)=O)cnn89)nn7)c(C(F)F)n6)CC5)CC4)C3)c21 (stereo partly drawn) [Example 88] | 70 to 80 | < 0.5 | – | –
Cn1c(=O)n(C2CCC(=O)NC2=O)c2cccc(N3CCC4(CC3)CN(C[C@H]3CC[C@H](n5cc(-n6cc(-c7ccc8cc(C(N)=O)cnn78)nn6)c(C(F)F)n5)CC3)CCO4)c21 (stereo partly drawn) [Example 89, 7-(1-(3-(difluoromethyl)-1-((1r,4r)-4-((9-(1-(2,6-dioxopiperidin-3-yl)-3-methyl-2-oxo-2,3-dihydro-1H-benzo[d]imidazol-4-yl)-1-oxa-4,9-diazaspiro[5.5]undecan-4-yl)methyl)cyclohexyl)-1H-pyrazol-4-yl)-1H-1,2,3-triazol-4-yl)pyrrolo[1,2-b]pyridazine-3-carboxamide] | > 80 | 0.5 to 1 | – | –
Cn1c(=O)n(C2CCC(=O)NC2=O)c2cccc(NC(=O)N3CCC4(CCN(C[C@H]5CC[C@H](n6cc(-n7cc(-c8ccc9cc(C(N)=O)cnn89)nn7)c(C(F)F)n6)CC5)C4)CC3)c21 (stereo partly drawn) [Example 90, 2-(((1r,4r)-4-(4-(4-(3-carbamoylpyrrolo[1,2-b]pyridazin-7-yl)-1H-1,2,3-triazol-1-yl) -3-(difluoromethyl)-1H-pyrazol-1-yl)cyclohexyl)methyl)-N-(1-(2,6-dioxopiperidin-3-yl)-3-methyl-2-oxo-2,3-dihydro-1H-benzo[d]imidazol-4-yl)-2,8-diazaspiro[4.5]decan-8-carboxamide] | 70 to 80 | > 5 | – | –
Cn1c(=O)n(C2CCC(=O)NC2=O)c2cccc(N3CCC(N4CCN(C[C@H]5CC[C@H](n6cc(-n7cc(-c8ccc9cc(C(N)=O)cnn89)nn7)c(C(F)F)n6)CC5)CC4)CC3)c21 (stereo partly drawn) [Example 91, 7-(1-(3-(difluoromethyl)-1-((1r,4r)-4-((4-(1-(1-(2,6-dioxopiperidin-3-yl)-3-methyl-2-oxo-2,3-dihydro-1H-benzo[d]imidazol-4-yl)piperidin-4-yl)piperazin-1-yl)methyl)cyclohexyl)-1H-pyrazol-4-yl)-1H-1,2,3-triazol-4-yl)pyrrolo[1,2-b]pyridazine-3-carboxamide] | > 80 | < 0.5 | – | –
Cn1c(=O)n(C2CCC(=O)NC2=O)c2cccc(N3C4CCC3CN(C[C@H]3CC[C@H](n5cc(-n6cc(-c7ccc8cc(C(N)=O)cnn78)nn6)c(C(F)F)n5)CC3)C4)c21 (stereo partly drawn) [Example 92, 7-(1-(3-(difluoromethyl)-1-((1r,4r)-4-(8-(1-(2,6-dioxopiperidin-3-yl)-3-methyl-2-oxo-2,3-dihydro-1H-benzo[d]imidazol-4-yl)-3,8-diazabicyclo[3.2.1]oct-3-yl)methyl)cyclohexyl-1H-pyrazol-4-yl)-1H-1,2,3-triazol-4-yl)pyrrolo[1,2-b]pyridazine-3-carboxamide] | > 80 | 1 to 5 | – | –
NC(=O)c1cnn2c(-c3cn(-c4cn(C5CCN(CCN6CCN(c7ccc8c(c7)C(=O)N(C7CCC(=O)NC7=O)C8=O)CC6)CC5)nc4C(F)F)nn3)ccc2c1 (stereo not drawn) [Example 93] | 70 to 80 | 1 to 5 | – | –
NC(=O)c1cnn2c(-c3cn(-c4cn(C5CCN(CC6CCN(c7ccc8c(c7)C(=O)N(C7CCC(=O)NC7=O)C8=O)CC6)CC5)nc4C(F)F)nn3)ccc2c1 (stereo not drawn) [Example 94, 7-(1-(3-(difluoromethyl)-1-(1-((1-(2-(2,6-dioxopiperidin-3-yl)-1,3-dioxoisoindolin-5-yl)piperidin-4-yl)methyl)piperidin-4-yl)-1H-pyrazol-4-yl)-1H-1,2,3-triazol-4-yl)pyrrolo[1,2-b]pyridazine-3-carboxamide] | – | – | < 60 | < 0.5
NC(=O)c1cnn2c(-c3cn(-c4cn(C5CCN(CC6CCN(c7ccc(C(=O)NC8CCC(=O)NC8=O)c(F)c7)CC6)CC5)nc4C(F)F)nn3)ccc2c1 (stereo not drawn) [Example 95, 7-{1-[3-(difluoromethyl)-1-{1-[(1-{4-[(2,6-dioxopiperidin-3-yl)aminocarbonyl]-3-fluorophenyl}piperidin-4-yl)methyl]piperidin-4-yl}-1H-pyrazol-4-yl]-1H-1,2,3-triazol-4-yl}pyrrolo[1,2-b]pyridazine-3-carboxamide] | – | – | < 60 | > 5
Cn1c(=O)n(C2CCC(=O)NC2=O)c2cccc(N3CCN(C[C@H]4CC[C@H](n5cc(-n6cc(-n7ccc8cc(C(N)=O)cnc87)nn6)c(C(F)F)n5)CC4)CC3)c21 (stereo partly drawn) [Example 100, 1-(1-(3-(difluoromethyl)-1-((1r,4r)-4-((4-(1-(2,6-dioxopiperidin-3-yl)-3-methyl-2-oxo-2,3-dihydro-1H-benzo[d]imidazol-4-yl)piperazin-1-yl)methyl)cyclohexyl)-1H-pyrazol-4-yl)-1H-1,2,3-triazol-4-yl)-1H-pyrrolo[2,3-b]pyridine-5-carboxamide] | 60 to 70 | 0.5 to 1 | – | –
Cn1c(=O)n(C2CCC(=O)NC2=O)c2cccc(C3CCN(C[C@H]4CC[C@H](n5cc(-n6cc(-n7ccc8cc(C(N)=O)cnc87)nn6)c(C(F)F)n5)CC4)CC3)c21 (stereo partly drawn) [Example 101, 1-(1-(3-(difluoromethyl)-1-((1r,4r)-4-((4-(1-(2,6-dioxopiperidin-3-yl)-3-methyl-2-oxo-2,3-dihydro-1H-benzo[d]imidazol-4-yl)piperidin-1-yl)methyl)cyclohexyl)-1H-pyrazol-4-yl)-1H-1,2,3-triazol-4-yl)-1H-pyrrolo[2,3-b]pyridine-5-carboxamide] | 70 to 80 | < 0.5 | – | –
Cn1c(=O)n(C2CCC(=O)NC2=O)c2cccc(N3CCN(C4CCN(C[C@H]5CC[C@H](n6cc(-n7cc(-n8ccc9cc(C(N)=O)cnc98)nn7)c(C(F)F)n6)CC5)CC4)CC3)c21 (stereo partly drawn) [Example 104, 1-(1-(3-(difluoromethyl)-1-((1r,4r)-4-((4-(4-(1-(2,6-dioxopiperidin-3-yl)-3-methyl-2-oxo-2,3-dihydro-1H-benzo[d]imidazol-4-yl)piperazin-1-yl)piperidin-1-yl)methyl)cyclohexyl)-1H-pyrazol-4-yl)-1H-1,2,3-triazol-4-yl)-1H-pyrrolo[2,3-b]pyridine-5-carboxamide] | > 80 | < 0.5 | – | –
Cn1c(=O)n(C2CCC(=O)NC2=O)c2cccc(N3CC4(CCN(C[C@H]5CC[C@H](n6cc(-n7cc(-n8ccc9cc(C(N)=O)cnc98)nn7)c(C(F)F)n6)CC5)CC4)C3)c21 (stereo partly drawn) [Example 105, 1-(1-(3-(difluoromethyl)-1-((1r,4r)-4-((2-(1-(2,6-dioxopiperidin-3-yl)-3-methyl-2-oxo-2,3-dihydro-1H-benzo[d]imidazol-4-yl)-2,7-diazaspiro[3.5]non-7-yl)methyl)cyclohexyl)-1H-pyrazol-4-yl)-1H-1,2,3-triazol-4-yl)-1H-pyrrolo[2,3-b]pyridine-5-carboxamide] | > 80 | < 0.5 | – | –
Cn1c(=O)n(C2CCC(=O)NC2=O)c2cccc(C#CCOC3CCN(C[C@H]4CC[C@H](n5cc(-n6cc(-n7ccc8cc(C(N)=O)cnc87)nn6)c(C(F)F)n5)CC4)CC3)c21 (stereo partly drawn) [Example 106, 1-{1-[3-(difluoromethyl)-1-[(1r,4r)-4-{[4-({3-[1-(2,6-dioxohexahydropyridin-3-yl)-3-methyl-2-oxobenzo[d]imidazol-4-yl]prop-2-ynyl}oxy)hexahydropyridin-1-yl]methyl}cyclohexyl]pyrazol-4-yl]-1,2,3-triazol-4-yl}pyrrolo[2,3-b]pyridine-5-carboxamide] | 60 to 70 | < 0.5 | – | –
